Literature values in US20110223244A1, “ALCOHOL RESISTANT ENTERIC PHARMACEUTICAL COMPOSITIONS” (priority 2010, published 2011).
Structures can show the parent of a compound that is named as a salt.

Conditions: yields 1-(2-thienyl)carbinol, naphthol and substituted naphthols

CNCC[C@H](Oc1cccc2ccccc12)c1cccs1 [duloxetine HCl]
stability in aqueous HCl: rapidly undergoes solvolysis and rearrangement
